Test results taken from US6017890A, “Azole peptidomimetics as thrombin receptor antagonists” (Ortho-McNeil Pharmaceutical, Inc., priority 1999, dated 2000).
Starred links: 1 amine or outer side, 2 acyl side, 3 side chain; linkers in the order of their positions; H or OH if unused. Non-standard residues stand in square brackets, D forms with d. Residues, ends and D or L forms follow the SMILES beside them. Phe(4-F)ψ(2,4-Thz) = O=C(c1csc([C@H](Cc2ccc(F)cc2)N[*:1])n1)[*:2]; Cha = N[C@@H](CC1CCCCC1)C(=O)O

Tests used:
[1] = target: T1, gel-filtered platelets (SFLLRN-NH2 (TRAP)-stimulated aggregation) (Homo sapiens, UniProt P25116); assay: In vitro inhibition of SFLLRN-NH2 (TRAP)-induced gel-filtered platelet aggregation; assay type: cell-based; conditions: agonist SFLLRN-NH2 (TRAP)
T1 sequence (P25116 42-425): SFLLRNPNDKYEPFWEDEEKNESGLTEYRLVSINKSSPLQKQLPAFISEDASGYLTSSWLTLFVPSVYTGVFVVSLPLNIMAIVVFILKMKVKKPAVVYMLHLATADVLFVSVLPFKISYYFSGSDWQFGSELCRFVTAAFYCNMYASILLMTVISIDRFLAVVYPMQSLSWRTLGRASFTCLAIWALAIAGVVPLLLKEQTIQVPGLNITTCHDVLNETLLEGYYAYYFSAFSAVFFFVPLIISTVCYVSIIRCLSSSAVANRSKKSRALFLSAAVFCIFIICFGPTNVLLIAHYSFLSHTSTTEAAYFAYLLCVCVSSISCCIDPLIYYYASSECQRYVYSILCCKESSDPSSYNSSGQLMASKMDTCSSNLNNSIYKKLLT
Description: The percentage of platelet aggregation is calculated as an increase in light transmission of compound-treated platelet concentrate vs. control-treated platelet concentrate. Human blood is obtained from drug free, normal donors in tubes containing 0.13 M sodium citrate. Platelet rich plasma (PRP) is collected by centrifugation of whole blood at 200×g for 10 min at 25° C. The PRP (5 mL) is gel filtered through Sepharose 2B (bed volume 50 mL), and the platelet count is adjusted to 2×10^7 platelets per sample. The following constituents are added to a siliconized cuvette: concentrated platelet filtrate and Tyrode's buffer (0.14 M NaCl, 0.0027 M KCl, 0.012 M NaHCO3, 0.76 mM Na2 HPO4, 0.0055 M glucose, 2 mg/mL BSA and 5.0 mM HEPES@pH 7.4) in an amount equal to 350 μl, 50 μl of 20 mM calcium and 50 μl of the test compound. Aggregation is monitored in a BIODATA aggregometer for the 3 min following the addition of agonist (thrombin 50 μl of 1 unit/mL).
(§1) The table contains IC50 values (μM) of the compounds in a thrombin receptor binding assay, and IC50 values (μM) against platelet aggregation stimulated by two agonists, thrombin or SFLLRN-NH2 [SEQ. ID. NO:1] (TRAP).

[2] = target: T2, thrombin receptor (Homo sapiens, UniProt P25116); assay: In vitro thrombin receptor binding assay (displacement of tritiated 721-40 from CHRF membranes); conditions: tritiated 721-40 (Ser-pFPhe-Har-Leu-Har-Lys-Tyr-NH2) radioligand, read-out: Thr Receptor Binding IC50
T2 construct: CHRF membranes (Jones, Biochim. Biophys. Acta 1992, 1136, 272) are thawed from -70° C; endogenous in cells; host or cells: CHRF cell membranes
T2 sequence (P25116 22-425): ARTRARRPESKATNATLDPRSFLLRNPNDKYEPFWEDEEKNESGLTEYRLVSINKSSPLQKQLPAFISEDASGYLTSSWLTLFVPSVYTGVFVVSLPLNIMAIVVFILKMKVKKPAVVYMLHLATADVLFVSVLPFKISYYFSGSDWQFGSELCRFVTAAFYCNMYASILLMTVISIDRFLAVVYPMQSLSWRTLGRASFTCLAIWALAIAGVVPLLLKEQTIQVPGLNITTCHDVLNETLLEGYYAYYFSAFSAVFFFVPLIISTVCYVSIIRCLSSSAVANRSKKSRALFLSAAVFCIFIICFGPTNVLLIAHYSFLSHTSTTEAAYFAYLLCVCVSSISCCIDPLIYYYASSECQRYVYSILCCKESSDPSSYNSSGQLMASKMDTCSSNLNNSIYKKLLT
Description: CHRF membranes (Jones, Biochim. Biophys. Acta 1992, 1136, 272) are thawed from -70° C., centrifuged at maximum speed for 5 min, washed twice with binding buffer (50 mM HEPES containing 5 mM MgCl2 and 0.1% BSA), and re-suspended in binding buffer ([…]). 100 μl of membranes are added to the 24-Wallac plates and delivered to the Tomtech apparatus. In a typical experiment, 6 μl of samples (from a 125 μg/mL intermediary plate, 20% DMSO) and 44 μl buffer are delivered to the plates (final conc. of compounds is 3.7 μg/mL, 0.6% DMSO). Similarly, 6 μl 20% DMSO and 44 μl buffer are delivered to both column 1 (NSB) and column 12 (TB). 10 μl Ser-pFPhe-Har-Leu-Har-Lys-Tyr-NH2 [SEQ. ID. NO:2] (721-40; 500 μM in deionized water) is added to column 1. 50 μl tritiated 721-40 (specific activity 46 Ci/mmol) is added to all the wells. The plates are mixed well for 20 seconds, incubated for 30 min, and then harvested with 10 mM HEPES/138 mM NaCl using the Skatron harvester. The filters (GF/C Brandel FPXLR 296) are presoaked 3 h in 0.5% polyethylenimine in HEPES/0.1 M N-acetylglucosamine) are set in saran wrap and dried for 3 min in the microwave, and placed in sample bags (Wallac 1450-432). 4.5 mL scintillation fluid (Wallac, Betaplate Scint 1205-440) is added. The bags are sealed, placed in filter cassettes (Wallac 1450-104), and analyzed on the microbeta counter.
as §1

Row | Structure (SMILES) | IC50 [1] | IC50 [2]
1 | CNCC(=O)N[C@@H](Cc1ccc(F)cc1)c1nc(C(=O)N[C@@H](CC2CCCCC2)C(=O)N[C@@H](CCCN=C(N)N)C(=O)NCc2ccccc2)co1 [Compound 1, 2-[1(S)-Sarcosineamido-2-(4-fluorophenyl)ethyl]oxazole-4-carboxy-cyclohexylalanyl-arginine benzylamide] | 10 µM | 2 µM
2 | Cc1oc([C@H](Cc2ccc(F)cc2)NC(=O)[C@@H](N)Cc2cn(Cc3ccccc3)cn2)nc1C(=O)N[C@@H](CC1CCCCC1)C(=O)N[C@@H](CCCNC(=N)N)C(=O)NCc1ccccc1 [Compound 8, 2-[1(S)-N(tau)-Benzyl-histidineamido-2-(4-fluorophenyl)ethyl]-5-methyloxazole-4-carboxy-cyclohexylalanyl-arginine benzylamide] | 5 µM | 30 µM
3 | CNCC(=O)N[C@@H](Cc1ccc(F)cc1)c1nc(C(=O)N[C@@H](CCCCN)C(=O)N[C@@H](CCCNC(=N)N)C(=O)NCCc2ccccc2)cs1 [Compound 6, 2-[1(S)-Sarcosineamido-2-(4-fluorophenyl)ethyl]thiazole-4-carboxy-lysyl-arginine phenethylamide] | 4 µM | 15.5 µM
4 | CNCC(=O)N[C@@H](Cc1ccc(F)cc1)c1nc(C(=O)N[C@@H](CC2CCCCC2)C(=O)N[C@@H](CCCNC(=N)N)C(=O)NCc2ccccc2)c(C)o1 [Compound 7, 2-[1(S)-Sarcosineamido-2-(4-fluorophenyl)ethyl]-5-methyloxazole-4-carboxy-cyclohexylalanyl-arginine benzylamide] | 22 µM | 7 µM
5 | CC(=O)N[C@@H](Cc1ccc(F)cc1)c1nc(C(=O)N[C@@H](CC2CCCCC2)C(=O)N[C@@H](CCCNC(=N)N)C(=O)NCc2ccccc2)c(C)o1 [Compound 9, 2-[1(S)-Acetamido-2-(4-fluorophenyl)ethyl]-5-methyloxazole-4-carboxy-cyclohexylalanyl-arginine benzylamide] | 11 µM | 31 µM
6 | Cc1oc([C@H](Cc2ccc(F)cc2)N(C)C)nc1C(=O)N[C@@H](CC1CCCCC1)C(=O)N[C@@H](CCCNC(=N)N)C(=O)NCc1ccccc1 [Compound 10, 2-[1(S)-N,N-Dimethyl-2-(4-fluorophenyl)ethyl]-5-methyloxazole-4-carboxy-cyclohexylalanyl-arginine benzylamide] | 17 µM | 
7 | CNCC(=O)N[C@@H](Cc1ccc(F)cc1)c1nc(C(=O)N[C@@H](CC2CCCCC2)C(=O)N[C@@H](CCCN=C(N)N)C(=O)NCCc2ccccc2)cs1 [Compound 3, 2-[1(S)-Sarcosineamido-2-(4-fluorophenyl)ethyl]thiazole-4-carboxy-cyclohexylalanyl-arginine phenethylamide] | 0.6 µM | 35 µM
8 | N=C(N)NCCC[C@H](NC(=O)[C@H](CC1CCCCC1)NC(=O)c1coc([C@H](Cc2ccc(F)cc2)NC(=O)CCN)n1)C(=O)NCc1ccccc1 [Compound 2, 2-[1(S)-β-Alanineamido-2-(4-fluorophenyl)ethyl]oxazole-4-carboxy-cyclohexylalanyl-arginine benzylamide] | 7 µM | 8.2 µM
9 | CC[C@H](C)[C@H](N)C(=O)N[C@@H](Cc1ccc(F)cc1)c1nc(C(=O)N[C@@H](CC2CCCCC2)C(=O)N[C@@H](CCCN=C(N)N)C(=O)N[C@@H](Cc2ccccc2)C(N)=O)cs1 [Compound 5, 2-[1(S)-Isoleucineamido-2-(4-fluorophenyl)ethyl]thiazole-4-carboxy-cyclohexylalanyl-arginyl-phenylalanineamide] (H-I[Phe(4-F)ψ(2,4-Thz)][Cha]RF-NH2) | 9 µM | 3.5 µM
